This note sets out measurements from patent publication US12624004B2 (Fudan University, priority 2019, dated 2026).

Where a name gives a salt, the structure may show the parent alone. Read-outs that look alike come from different tables or passages of the source.

The target of one assay is T1, μ opioid receptor (Homo sapiens, UniProt P35372).
T1 construct: expressed in transfected cells; host or cells: CHO cells (membranes)
Put plainly: Competition binding assay on membranes of CHO cells expressing μ opioid receptor, [3H]-labeled ligand. The following applies: for Ki: read-out: μOR Ki; for inhibition at 1 µM: Table 3-1, 1 μM concentration of compounds. The gist of the method: (§1)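 CHO membranes (20–30 μg protein) incubated with [3H]-labeled ligand at 1–2 nM and test compounds, 30 min at 30° C; nonspecific binding with 1 μM corresponding ligand. Filtered on GF/C, washed with 50 mM Tris-HCl pH 7.4, scintillation-counted. IC50 converted to Ki by Ki=IC50/(1+[L]/Kd).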

A further assay has as its target T2, δ opioid receptor (Homo sapiens, UniProt P41143).
T2 construct: expressed in transfected cells; host or cells: CHO cells (membranes)
Put plainly: Competition binding assay on membranes of CHO cells expressing δ opioid receptor, [3H]-labeled ligand. The following applies: for Ki: Table 5-1, read-out: δOR Ki. In outline: as §1

The subject of the next assay is Female mice. Nature of the assay: In vivo hot plate method analgesia test. Conditions: intraperitoneal; for % MPE (5 mg/kg): Table 2-2, hot plate 55° C.; for % MPE @ 10 mg/kg: Table 3-2, hot plate 55° C.; for Maximum percentage effective analgesia (% MPE): Table 5-2, hot plate 55° C.; for % MPE @ 10 mg/kg / Maximum percentage effective analgesia (% MPE): 10 mg/kg dose. The procedure: Female mice weighing about 20 g were placed on a hot plate apparatus preheated to 55° C., and the latency of the hindfoot response of the mice was used as the pain threshold indicator. Animals were screened before the experiment, and those with response latency less than 5 s or more than 30 s were excluded. To prevent foot scalding, the maximum observation time was set at 60 s. The basal pain threshold was the average of two measurements, with a 5-min interval between measurements. pain thresholds were measured at 15 m, 30 m, 60 m and 120 m after intraperitoneal injection in each group of mice. The percentage effective analgesia (% MPE) was calculated according to the following formula: percentage effective analgesia (% MPE) (post-dose latency−pre-dose latency)/(60−pre-dose latency)×100%. ED50 values were calculated based on the effective percentage of analgesia using the software Graphpad prism 5.0 software.
(§2) Female mice weighing about 20 g were placed on a hot plate apparatus preheated to 55° C., and the latency of the hindfoot response of the mice was used as the pain threshold indicator. Animals were selected before the experiment, and those with response latency less than 5 s or greater than 30 s were excluded. To prevent foot scalding, the maximum observation time was set at 60 s. The basal pain threshold was the average of two measurements, with a 5-min interval between measurements. pain thresholds were measured at 15 min, 30 min, 60 min and 120 min after intraperitoneal administration in each group of mice. The percentage of analgesic effectiveness (% MPE) was calculated according to the following equation. Percentage of effective analgesia (% MPE)_(Pre-dose incubation period−Incubation period after drug administration)/(60-Pre-dose incubation period)×100%. ED50 values were calculated based on the effective percentage of analgesia using GraphPad prism 5.0 software.
as §2, with “were screened” for “were selected”, “measurements. Pain” for “measurements. pain”, “following formula.” for “following equation. Percentage of effective analgesia (% MPE)_(Pre-dose incubation period−Incubation period after drug administration)/(60-Pre-dose incubation period)×100%. ED50 values were calculated based on the effective percentage of analgesia using GraphPad prism 5.0 software.”
ED50 values were calculated based on the effective percentage of analgesia using Graphpad Prism 5.0.
Female mice weighing about 20 g were placed on a hot plate apparatus preheated to 55° C., and the latency of the hindfoot response of the mice was used as the pain threshold indicator. Animals were screened before the experiment, and those with response latency less than 5 s or more than 30 s were excluded. To prevent foot scalding, the maximum observation time was set at 60 s. The basal pain threshold was the average of two measurements, with a 5-min interval between measurements. pain thresholds were measured at 15 min, 30 min, 60 min and 120 min after intraperitoneal administration in each group of mice. The analgesic effective percentage (% MPE) was calculated according to the following formula: analgesic effective percentage (% MPE)=(latency after drug administration−latency before drug administration)/(60−latency before drug administration)×100%. ED50 values were calculated based on the effective percentage of analgesia using the software Graphpad prism 5.0.
Female mice weighing about 20 g were placed on a hot plate apparatus preheated to 55° C. and the latency of the hindfoot response was used as an indicator of pain threshold. […]

The next assay deals with T3, κ opioid receptor (Homo sapiens, UniProt P41145).
T3 construct: expressed in transfected cells; host or cells: CHO cells (membranes)
Nature of the assay: Competition binding assay on membranes of CHO cells expressing κ opioid receptor, [3H]-labeled ligand. The following applies: for Ki: read-out: κOR Ki. In outline:
as §1

[1] abbreviates: 0.5 h, Table 2-1, 1 μM concentration of compound, read-out: δOR Binding rate (%).
[2] abbreviates: 0.5 h, Table 2-1, 1 μM concentration of compound, read-out: κOR Binding rate (%).
[3] abbreviates: 0.5 h, Table 3-1, 1 μM concentration of compounds, read-out: δOR Binding rate (%).
The mark [4] stands for this setting: 0.5 h, Table 3-1, 1 μM concentration of compounds, read-out: κOR Binding rate (%).

Broadly, the Ki is the equilibrium dissociation constant of an inhibitor or competing ligand from its target. The ED50 is the midpoint of the dose-response relation. Read a low ED50 as greater potency.

Turning to `CCCS(=O)(=O)N1CCC(O)(c2cccc(OC)c2)C(CN(C)C)C1.Cl` (centres unmarked) [FWBH19, 3-((Dimethylamino)methyl)-4-(3-methoxyphenyl)-1-(propylsulfonyl)piperidin-4-ol hydrochloride], the Ki at μ opioid receptor (Table 2-1) was found to be 133 ± 3.1 nM. In addition, the results for the inhibition at 1 µM on δ opioid receptor (setting [1]) and at κ opioid receptor (setting [2]) were 17.5 ± 4.38% and 19.1 ± 10.3%, respectively. Besides, the “% MPE (5 mg/kg)” value with Female mice (5 mg/kg dose) stood at 17.04%.

Consider `COc1cccc(C2(O)CCN(S(=O)(=O)C[C@]34CC[C@H](CC3O)C4(C)C)CC2CN(C)C)c1` (stereo partly drawn) [FWBH27, 3-((Dimethylamino)methyl)-1-((((1S,4R)-2-hydroxy-7,7-dimethylbicyclo[2.2.1]hept-1-yl)methyl)sulfonyl)-4-(3-methoxyphenyl)piperidin-4-ol hydrochloride], for which the Ki at μ opioid receptor (Table 2-1) was determined as 32.5 ± 3.3 nM; on κ opioid receptor (Table 2-1) it was 27.7 ± 3.9 nM. Besides, the inhibition at 1 µM at δ opioid receptor (setting [1]) was 24.8 ± 0.77%. Further, the “% MPE (5 mg/kg)” value with Female mice (5 mg/kg dose) was found to be 12.21%.

For `COc1cccc(C2(O)CCN(C(=O)NC34CC5CC(CC(O)(C5)C3)C4)CC2CN(C)C)c1.Cl` [FWBF16, 3-((dimethylamino)methyl)-4-hydroxy-N-((1R,3S,5R,7S)-3-hydroxyadamantan-1-yl)-4-(3-methoxyphenyl)piperidine-1-carboxamide hydrochloride], the inhibition at 1 µM at μ opioid receptor (read-out: μOR Binding rate (%)) is 0%; at δ opioid receptor (setting [3]) it was 1.9%; on κ opioid receptor (setting [4]) it was 0%. For the same compound, the “% MPE @ 10 mg/kg” value in the assay on Female mice is 16.07%.

As to `COc1cccc(C2(O)CCN(C(=O)Cc3ccc(Cl)c(Cl)c3)CC2CN(C)C)c1.Cl` (centres unmarked) [FWBE17, 2-(3,4-Dichlorophenyl)-1-(3-((dimethylamino)methyl)-4-hydroxy-4-(3-methoxyphenyl)piperidin-1-yl)ethyl-1-one hydrochloride], the Ki at μ opioid receptor (Table 5-1) was found to be 69.2 ± 0.4 nM; at δ opioid receptor, 805 ± 173 nM; on κ opioid receptor (Table 5-1), 288 ± 12.8 nM. The “Maximum percentage effective analgesia (% MPE)” value in the assay with Female mice came out at 70.66%.

In the case of `COc1cccc(C2(O)CCN(C(=O)C3(c4ccccc4)CCC3)CC2CN(C)C)c1.Cl` (centres unmarked) [FWBE25, (3-((Dimethylamino)methyl)-4-hydroxy-4-(3-methoxyphenyl)piperidin-1-yl)(1-phenylcyclobutyl) methanone hydrochloride], the inhibitory constant (Ki) on μ opioid receptor (Table 5-1) amounted to 80.9 ± 5.67 nM; at δ opioid receptor, 717 ± 253 nM; at κ opioid receptor (Table 5-1), 205 ± 40.9 nM. The “Maximum percentage effective analgesia (% MPE)” value in the assay with Female mice is on record as 5.03%.

For `COc1cccc(C2(O)CCN(S(=O)(=O)CCc3ccccc3)CC2CN(C)C)c1.Cl` (centres unmarked) [FWBH9, 3-((Dimethylamino)methyl)-4-(3-methoxyphenyl)-1-(phenethylsulfonyl)piperidin-4-ol hydrochloride], the inhibition constant Ki on μ opioid receptor (Table 2-1) was 1.79 ± 2 nM. For the same compound, the inhibition at 1 µM on δ opioid receptor (setting [1]) was 0%; on κ opioid receptor (setting [2]) it was 8.41 ± 1.66%. The “% MPE (5 mg/kg)” value in the assay on Female mice (5 mg/kg dose) is given as 100%.

Consider `COc1cccc(C2(O)CCN(C(=O)Cc3ccc4ccccc4c3)CC2CN(C)C)c1.Cl` (centres unmarked) [FWBE15, 1-(3-((Dimethylamino)methyl)-4-hydroxy-4-(3-methoxyphenyl)piperidin-1-yl)-2-(naphthalen-2-yl)ethyl-1-one hydrochloride], for which the Ki at μ opioid receptor (Table 5-1) was 81.6 ± 1 nM; at δ opioid receptor, over 10000 nM; on κ opioid receptor (Table 5-1), 2651 ± 3.5 nM. In addition, the “Maximum percentage effective analgesia (% MPE)” value with Female mice stood at 0%.

Turning to `COc1cccc(C2(O)CCN(C(=O)Nc3cc(C(F)(F)F)cc(C(F)(F)F)c3)CC2CN(C)C)c1.Cl` (centres unmarked) [FWBF10, N-(3,5-Bis(trifluoromethyl)phenyl)-3-((dimethylamino)methyl)-4-hydroxy-4-(3-methoxyphenyl) piperidine-1-carboxamide hydrochloride], the results for the inhibition at 1 µM on μ opioid receptor (read-out: μOR Binding rate (%)), at δ opioid receptor (setting [3]) and on κ opioid receptor (setting [4]) were 0%, 0.9% and 8.6 ± 4.8%, respectively. In the assay on Female mice, the “% MPE @ 10 mg/kg” value was 7.74%.

For the compound `COc1cccc(C2(O)CCN(C(=O)Nc3cccs3)CC2CN(C)C)c1` (centres unmarked) [FWBF19, 3-((Dimethylamino)methyl)-4-hydroxy-4-(3-methoxyphenyl)-N-(thiophen-2-yl)piperidine-1-carboxamide hydrochloride], the inhibition at 1 µM at μ opioid receptor (read-out: μOR Binding rate (%)) was 0%; on δ opioid receptor (setting [3]), 38.2 ± 9.4%; on κ opioid receptor (setting [4]), 27.5 ± 6.4%. Also, the “% MPE @ 10 mg/kg” value in the assay on Female mice worked out at 20.07%.

Turning to `COc1cccc(C2(O)CCN(S(=O)(=O)C[C@@]34CC[C@@H](CC3=O)C4(C)C)CC2CN(C)C)c1` (stereo partly drawn) [FWBH24, (1R,4S)-1-(((3-((Dimethylamino)methyl)-4-hydroxy-4-(3-methoxyphenyl)piperidin-1-yl)sulfonyl)methyl)-7,7-Dimethylbicyclo[2.2.1]heptan-2-one hydrochloride], the Ki at μ opioid receptor (Table 2-1) was 65.1 ± 5.36 nM; at κ opioid receptor (Table 2-1), 433 ± 15.3 nM. For the same compound, the inhibition at 1 µM at δ opioid receptor (setting [1]) was 11.1 ± 1.3%. In addition, the “% MPE (5 mg/kg)” value in the assay with Female mice (5 mg/kg dose) is 54.81%.

`COc1cccc(C2(O)CCN(C(=O)NC(C)C34CC5CC(CC(C5)C3)C4)CC2CN(C)C)c1.Cl` [FWBF15, N-(1-((3R,5R,7R)-adamantan-1-yl)ethyl)-3-((dimethylamino)methyl)-4-hydroxy-4-(3-methoxyphenyl)piperidine-1-carboxamide hydrochloride]: the results for the inhibition at 1 µM at μ opioid receptor (read-out: μOR Binding rate (%)), at δ opioid receptor (setting [3]) and on κ opioid receptor (setting [4]) were 32.8 ± 5.5%, 0% and 10.4 ± 10.2%, respectively. Also, the “% MPE @ 10 mg/kg” value in the assay with Female mice is 22.07%.

`COc1cccc(C2(O)CCC(NS(=O)(=O)c3cccs3)CC2CN(C)C)c1.Cl` (centres unmarked) [N-(3-((Dimethylamino)methyl)-4-hydroxy-4-(3-methoxyphenyl)cyclohexyl)thiophene-2-sulfonamide hydrochloride]: the inhibition at 10 µM on μ opioid receptor (Table 1-1, 10 μM concentration of compound, mean ± SD of three measurements, read-out: μOR Binding rate (%)) was 57 ± 4.8%; at δ opioid receptor (0.5 h, Table 1-1, 10 μM concentration of compound, read-out: δOR Binding rate (%)), 0%; on κ opioid receptor (0.5 h, Table 1-1, 10 μM concentration of compound, read-out: κOR Binding rate (%)), 37 ± 6.8%. Also, in the assay on Female mice (Table 1-2, hot plate 55° C., 5 mg/kg dose), the “Maximum percentage effective analgesic (% MPE)” value amounted to 19.5%.

For `COc1cccc(C2(O)CCN(C(=O)Nc3cccc(F)c3)CC2CN(C)C)c1` (centres unmarked) [FWBF7, 3-((Dimethylamino)methyl)-N-(3-fluorophenyl)-4-hydroxy-4-(3-methoxyphenyl)piperidine-1-carboxamide hydrochloride], the values for the inhibition at 1 µM on μ opioid receptor (read-out: μOR Binding rate (%)), at δ opioid receptor (setting [3]) and on κ opioid receptor (setting [4]) were 36.7 ± 7.4%, 9.2 ± 7.8% and 0%, respectively. This compound showed a median effective dose (ED50) with Female mice (Mus musculus, ip, Table 3-2, hot plate) of 4.12 mg/kg.

Regarding `COc1cccc(C2(O)CCN(S(=O)(=O)Cc3ccc(C(F)(F)F)cc3)CC2CN(C)C)c1.Cl` (centres unmarked) [FWBH17, 3-((Dimethylamino)methyl)-4-(3-methoxyphenyl)-1-((4-(trifluoromethyl)benzyl)sulfonyl) piperidin-4-ol hydrochloride], on μ opioid receptor (Table 2-1), the Ki stood at 261 ± 35.3 nM. The figures for the inhibition at 1 µM on δ opioid receptor (setting [1]) and at κ opioid receptor (setting [2]) were 29.3 ± 1.66% and 25.4 ± 5.93%, respectively. Further, the “% MPE (5 mg/kg)” value in the assay on Female mice (5 mg/kg dose) amounted to 48.32%.
